Values joined by “and” are separate entries in the source; they are usually repeats but may differ in a detail not shown here. Equal entries are not always repeated. Peptide text beside a SMILES is read from it.
The compounds below were run against T1, A9UPE9 PDZ (Monosiga brevicollis, UniProt A9UPE9) (assay: biochemical). Conditions: not given.
T1 sequence (A9UPE9 7-98): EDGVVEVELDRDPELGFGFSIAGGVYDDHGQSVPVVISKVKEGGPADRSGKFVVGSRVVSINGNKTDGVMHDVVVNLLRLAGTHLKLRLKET
Description: (§1) Starting with the HPV18 E6 C-terminal sequence, we designed a number of peptides to test specific peptide positions, including HPV16 E6, HPV18 E6, SRETTV, SRETDV, RRETTV, and RRETDV, where underlined residues differ from HPV18 E6. As a control, we also tested human SNX27, SHANK1, and GIPC PDZ targets previously studied, including GIRK3 (sequence: ESESKV), BPIX (WDETNL), GAIP (QSSSEA), TYRP1 (PNQSVV), and B1AR (ASESKV), as well as previously identified mbSHANK targets, including A9V7Z4 (EDETAL), A9UP44 (QSESRL), and A9UXE1 (QDETAL).
(§2) Figure 6 The binding isotherms from competition fluorescence polarization experiments of A9UPE9 (left, as labeled), and DLG1-1 (right, as labeled) PDZ domains are shown with the HPV18 E6 variant peptides SRETTV and SRETDV. The average values are shown, with error bars representing standard deviation from at least triplicate experiments.
(§3) Cells were lysed on ice using sonication.
(§4) Binding curves were visualized using Kaleidagraph.
For `CC(C)[C@H](NC(=O)[C@H](CO)NC(=O)[C@H](CO)NC(=O)[C@H](CCC(=O)O)NC(=O)[C@H](CO)NC(=O)CN)C(=O)O` [Peptide A9UWP5_MONVE] (H-GSESSV-OH), the Ki was 490 ± 110 µM.
In the case of `CC(C)[C@H](NC(=O)[C@@H](NC(=O)[C@H](CO)NC(=O)[C@H](CCC(=O)O)NC(=O)[C@H](CCCNC(=N)N)NC(=O)[C@@H](N)Cc1c[nH]cn1)[C@@H](C)O)C(=O)O` [Peptide A9V6G5_MONBE] (H-HRESTV-OH), the Ki is reported as < 100 µM and 97 µM.
`CC[C@H](C)[C@H](NC(=O)[C@@H](N)C(C)C)C(=O)N[C@@H](C)C(=O)N[C@H](C(=O)N[C@@H](CCC(=O)O)C(=O)N[C@H](C(=O)O)C(C)C)[C@@H](C)O` [DLL1/DLL4] (H-VIATEV-OH) showed a Ki of 240 ± 40 µM.

Same assay, conditions: KI Values (μM) A9UPE9 PDZ, Table 3; competition FP, reporter 30 nM F*-HPV18 E6, 10.5 μM protein, at least triplicate, fitted with SOLVER
For `CC(C)C[C@H](NC(=O)[C@@H](N)CCCNC(=N)N)C(=O)N[C@@H](CCC(N)=O)C(=O)N[C@@H](CCCNC(=N)N)C(=O)N[C@@H](CCCNC(=N)N)C(=O)N[C@@H](CCCNC(=N)N)C(=O)N[C@@H](CCC(=O)O)C(=O)N[C@H](C(=O)N[C@@H](CCC(N)=O)C(=O)N[C@H](C(=O)O)C(C)C)[C@@H](C)O` [HPV18 E6], the Ki was 16 ± 1 µM.
For `CC(C)[C@H](NC(=O)[C@H](CCCCN)NC(=O)[C@H](CO)NC(=O)[C@H](CCC(=O)O)NC(=O)[C@H](CO)NC(=O)[C@@H](N)CCC(=O)O)C(=O)O` [GIRK3] (H-ESESKV-OH), the Ki was greater than 1000 µM.
Compound `CC(C)[C@H](NC(=O)[C@@H](NC(=O)[C@H](CO)NC(=O)[C@H](CCC(N)=O)NC(=O)[C@H](CC(N)=O)NC(=O)[C@@H]1CCCN1)C(C)C)C(=O)O` [TYRP1] (H-PNQSVV-OH) has a Ki of 97 ± 24 µM.
`CC(C)C[C@H](NC(=O)[C@H](CCCNC(=N)N)NC(=O)[C@H](CO)NC(=O)[C@H](CCC(=O)O)NC(=O)[C@H](CO)NC(=O)[C@@H](N)CCC(N)=O)C(=O)O` [Peptide A9UP44] (H-QSESRL-OH) showed a Ki of 64 ± 35 µM.
`CC(C)C[C@H](NC(=O)[C@H](CC(N)=O)NC(=O)[C@@H](NC(=O)[C@H](CCC(=O)O)NC(=O)[C@H](CC(=O)O)NC(=O)[C@@H](N)Cc1c[nH]c2ccccc12)[C@@H](C)O)C(=O)O` [BPIX] (H-WDETNL-OH) showed a Ki of 330 ± 160 µM.
For `C[C@H](NC(=O)[C@H](CCC(=O)O)NC(=O)[C@H](CO)NC(=O)[C@H](CO)NC(=O)[C@H](CO)NC(=O)[C@@H](N)CCC(N)=O)C(=O)O` [GAIP] (H-QSSSEA-OH), the Ki was greater than 1000 µM.
`CC(C)C[C@H](NC(=O)[C@H](CCC(N)=O)NC(=O)[C@@H](NC(=O)[C@H](CCC(=O)O)NC(=O)[C@H](CCCNC(=N)N)NC(=O)[C@H](CCCNC(=N)N)NC(=O)[C@@H](NC(=O)[C@H](CCCNC(=N)N)NC(=O)[C@H](CO)NC(=O)[C@@H](N)CO)[C@@H](C)O)[C@@H](C)O)C(=O)O` [HPV16 E6] was tested, and the Ki was 66 ± 24 µM.
Work on `CC(C)C[C@H](NC(=O)[C@H](C)NC(=O)[C@@H](NC(=O)[C@H](CCC(=O)O)NC(=O)[C@H](CC(=O)O)NC(=O)[C@@H](N)CCC(=O)O)[C@@H](C)O)C(=O)O` [Peptide A9V7Z4] (H-EDETAL-OH) yielded a Ki of 580 ± 160 µM.
Compound `CC(C)C[C@H](NC(=O)[C@H](C)NC(=O)[C@@H](NC(=O)[C@H](CCC(=O)O)NC(=O)[C@H](CC(=O)O)NC(=O)[C@@H](N)CCC(N)=O)[C@@H](C)O)C(=O)O` [Peptide A9UXE1] (H-QDETAL-OH) has a Ki of 460 ± 210 µM.
Compound `CC(C)[C@H](NC(=O)[C@H](CCCCN)NC(=O)[C@H](CO)NC(=O)[C@H](CCC(=O)O)NC(=O)[C@H](CO)NC(=O)[C@H](C)N)C(=O)O` [Peptide B1AR] (H-ASESKV-OH) has a Ki of 95 ± 30 µM.

Each compound was assayed against DLG1-1 PDZ (Homo sapiens, UniProt Q12959) (assay: biochemical). Conditions: not given.
Chain of DLG1-1 PDZ (Q12959 220-317): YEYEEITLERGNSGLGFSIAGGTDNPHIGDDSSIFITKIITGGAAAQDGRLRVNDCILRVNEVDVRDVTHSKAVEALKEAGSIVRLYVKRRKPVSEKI
Description: as §1, §2, §3, §4
`CC(C)C[C@H](NC(=O)[C@H](CC(N)=O)NC(=O)[C@@H](NC(=O)[C@H](CCC(=O)O)NC(=O)[C@H](CC(=O)O)NC(=O)[C@@H](N)Cc1c[nH]c2ccccc12)[C@@H](C)O)C(=O)O` [BPIX] (H-WDETNL-OH) gave a Ki of 460 ± 140 µM.
Work on `CC(C)C[C@H](NC(=O)[C@H](C)NC(=O)[C@@H](NC(=O)[C@H](CCC(=O)O)NC(=O)[C@H](CC(=O)O)NC(=O)[C@@H](N)CCC(=O)O)[C@@H](C)O)C(=O)O` [Peptide A9V7Z4] (H-EDETAL-OH) yielded a Ki of 460 ± 190 µM.

The compounds below were run against T1, A9UPE9 PDZ (assay: biochemical). Conditions: fluorescence polarization, 30 nM reporter peptide, triplicate experiments.
Description: Expression and purification of all human and M. brevicollis PDZ domains followed a similar protocol, as previously reported for mbSHANK1 PDZ [48, 54]. Briefly, N-terminal His-tagged versions of A9UPE9 PDZ (residues 7–98) and DLG1-1 PDZ (residues 220–317) with cleavable TEV sites were inserted into the pET28a+ vector by gene synthesis (GenScript) and expressed in Escherichia coli BL21 (DE3) cells. Cells were lysed on ice using sonication. The lysis buffer used was 50 mM Tris pH 8.5, 200 mM NaCl, 10 mM CaCl2, 10 mM MgCl2, 20% (w/v) glycerol, 50 mM imidazole pH 8.5, 0.25 mM TCEP, DNAse, and protease inhibitor cocktail. Immobilized metal-affinity chromatography, 5 mL HisTrap (GE Healthcare, now Cytiva), was used to purify proteins from the clarified supernatant. The wash buffer used was 25 mM imidazole pH 8.5, 25 mM Tris pH 8.5, 250 mM NaCl, 10% (v/v) glycerol, and 0.25 mM TCEP, and the elution buffer was 400 mM imidazole pH 8.5, 25 mM Tris pH 8.5, 50 mM NaCl, 10% (v/v) glycerol, and 0.25 mM TCEP. Except for the protein used in binding experiments, the protein was then dialyzed in dialysis/gel filtration buffer (25 mM Tris pH 8.5, 150 mM NaCl, 10% (w/v) glycerol, 0.5 mM TCEP) and incubated at 4 °C overnight with TEV protease to cleave off the His-tag. The cleaved protein was then purified using a second nickel column with the wash and elution buffers described above. All proteins were further purified on a Superdex S75 column (Cytiva), using gel filtration buffer. Proteins were concentrated using Amicon centrifugal concentrators (3 MWCO). Concentrated proteins used in fluorescence polarization assays were flash frozen in liquid nitrogen for storage at −80 °C. The extinction coefficient values used for quantification of the proteins at A280 were 1490 cm^−1·M^−1 (A9UPE9) and 4470 cm^−1·M^−1 (DLG1-1).
Fluorescence polarization assays were conducted, as previously described [12, 45, 46, 48, 54, 60]. […] Competition experiments were performed in at least triplicate, and binding affinities were determined using SOLVER, as previously described [12, 45, 46, 48, 54, 60].
For `CC(C)C[C@H](NC(=O)[C@H](CCCNC(=N)N)NC(=S)Nc1ccc2c(c1)C(=O)OC21c2ccc(O)cc2Oc2cc(O)ccc21)C(=O)N[C@@H](CCC(N)=O)C(=O)N[C@@H](CCCNC(=N)N)C(=O)N[C@@H](CCCNC(=N)N)C(=O)N[C@@H](CCCNC(=N)N)C(=O)N[C@@H](CCC(=O)O)C(=O)N[C@H](C(=O)N[C@@H](CCC(N)=O)C(=O)N[C@H](C(=O)O)C(C)C)[C@@H](C)O` [F*-HPV18 E6], the Kd was 6.9 µM and < 10 µM.

Same assay, conditions: fluorescence polarization, duplicate experiments
With `CC(C)C[C@H](NC(=O)[C@H](CCC(N)=O)NC(=O)[C@@H](NC(=O)[C@H](CCC(=O)O)NC(=O)[C@H](CCCNC(=N)N)NC(=O)[C@H](CCCNC(=N)N)NC(=O)[C@@H](NC(=O)[C@H](CCCNC(=N)N)NC(=O)[C@H](CO)NC(=O)[C@H](CO)NC(=S)Nc1ccc2c(c1)C(=O)OC21c2ccc(O)cc2Oc2cc(O)ccc21)[C@@H](C)O)[C@@H](C)O)C(=O)O` [FITC-SSRTRRETQL] the Kd was 19.5 ± 1.8 µM.
